Our source for the IC50 values is US20250073340A1, “SPIROCYCLIC MDM2 MODULATOR AND USES THEREOF” (Newave Pharmaceutical Inc., priority 2021, published 2025).

Assay [1] deals with BCL-2-dependent acute lymphoblastic leukemia (ALL) cell line RS4;11 overexpressing Bcl-2 G101V. Put plainly: cells. The format is cell-based. The following applies: Homo sapiens, RS4-11; about 72 hours, ATPlite luminescence; read-out: RS4;11-G101V IC50. Here is the method:
Biological Example 2: In vitro Anti-proliferation Assay in BCL-2-dependent acute lymphoblastic leukemia (ALL) cell line RS4; 11 overexpressing Bcl-2 G101V
Cell antiproliferation was assayed by PerkinElmer ATPlite™ Luminescence Assay System. Briefly, the various test cancer cell lines were plated at a density of about 1×10^4 cells per well in Costar 96-well plates, and were incubated with different concentrations of compounds for about 72 hours in medium supplemented with 5% FBS or 10% normal human serum (NHS). One lyophilized substrate solution vial was then reconstituted by adding 5 mL of substrate buffer solution, and was agitated gently until the solution was homogeneous. About 50 μL of mammalian cell lysis solution was added to 100 μL of cell suspension per well of a microplate, and the plate was shaken for about five minutes in an orbital shaker at −700 rpm. This procedure was used to lyse the cells and to stabilize the ATP. Next, 50 μL substrate solution was added to the wells and microplate was shaken for five minutes in an orbital shaker at −700 rpm. Finally, the luminescence was measured by a PerkinElmer TopCount® Microplate Scintillation Counter. Such assays, carried out with a range of doses of test compounds, allowed the determination of the cellular anti-antiproliferative IC50 of the compounds of the present invention.
A general note: ATP-based viability assays read luminescence as a measure of living cells.

The target in assay [2] is MDM2 (Homo sapiens (Human), UniProt Q00987). Put plainly: In vitro MDM2 HTRF assay (inhibition of p53-MDM2 interaction). The format is binding. The following applies: GST-MDM2 / biotinylated p53 peptide. On the technique in general: In TR-FRET formats the signal depends on donor and acceptor labels being close together.
MDM2, sequence (Q00987 whole entry): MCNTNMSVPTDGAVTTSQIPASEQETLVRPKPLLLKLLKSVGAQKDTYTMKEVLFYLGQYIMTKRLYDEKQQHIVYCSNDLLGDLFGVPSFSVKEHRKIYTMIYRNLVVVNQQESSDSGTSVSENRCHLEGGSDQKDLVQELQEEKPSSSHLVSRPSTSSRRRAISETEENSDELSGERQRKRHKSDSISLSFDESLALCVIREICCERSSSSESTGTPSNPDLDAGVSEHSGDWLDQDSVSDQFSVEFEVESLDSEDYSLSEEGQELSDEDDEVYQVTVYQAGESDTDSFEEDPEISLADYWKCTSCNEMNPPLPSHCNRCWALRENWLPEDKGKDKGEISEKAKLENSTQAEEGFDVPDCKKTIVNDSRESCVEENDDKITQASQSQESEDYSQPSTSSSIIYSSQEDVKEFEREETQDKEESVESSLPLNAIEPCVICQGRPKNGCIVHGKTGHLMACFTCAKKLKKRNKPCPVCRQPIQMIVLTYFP

For the compound `COc1cc(C(=O)N2CCC3(CC2)CC(C#Cc2cccc4c2CN(C2CCC(=O)NC2=O)C4=O)C3)ccc1NC(=O)[C@@H]1N[C@@H](CC(C)(C)C)[C@@]2(CNc3cc(Cl)ccc32)[C@H]1c1cccc(Cl)c1F` (stereo partly drawn) [Example 42, (2′S,3S,4′S,5′R)-6-chloro-4′-(3-chloro-2-fluorophenyl)-N-(4-(2-((2-(2,6-dioxopiperidin-3-yl)-1-oxoisoindolin-4-yl)ethynyl)-7-azaspiro[3.5]nonane-7-carbonyl)-2-methoxyphenyl)-2′-neopentylspiro[indoline-3,3′-pyrrolidine]-5′-carboxamide], the IC50 in assay [1] amounted to 99.1 nM; in assay [2], 4.51 nM.
With `COc1cc(N2CCC([C@@H]3C[C@H]3C#Cc3cccc4c3CN(C3CCC(=O)NC3=O)C4=O)CC2)ccc1NC(=O)[C@@H]1N[C@@H](CC(C)(C)C)[C@@]2(CNc3cc(Cl)ccc32)[C@H]1c1cccc(Cl)c1F` (stereo partly drawn) [Example 26, (2′S,3S,4′S,5′R)-6-chloro-4′-(3-chloro-2-fluorophenyl)-2′-(2,2-dimethylpropyl)-N-(4-{4-[(1S,2R)-2-{2-[2-(2,6-dioxopiperidin-3-yl)-1-oxo-3H-isoindol-4-yl]ethynyl}cyclopropyl]piperidin-1-yl}-2-methoxyphenyl)-1,2-dihydrospiro[indole-3,3′-pyrrolidine]-5′-carboxamide], the IC50 in assay [1] stood at 448 nM; in assay [2] it was 46.8 nM.
On the same counts, the results for `COc1cc(C(=O)N2CCN(CC#Cc3cccc4c3CN(C3CCC(=O)NC3=O)C4=O)CC2)ccc1NC(=O)[C@@H]1N[C@@H](CC(C)(C)C)[C@@]2(CNc3cc(Cl)ccc32)[C@H]1c1cccc(Cl)c1F` (stereo partly drawn) [Example 51, (2′S,3S,4′S,5′R)-6-chloro-4′-(3-chloro-2-fluorophenyl)-2′-(2,2-dimethylpropyl)-N-[4-(4-{3-[2-(2,6-dioxopiperidin-3-yl)-1-oxo-3H-isoindol-4-yl]prop-2-yn-1-yl}piperazine-1-carbonyl)-2-methoxyphenyl]-1,2-dihydrospiro[indole-3,3′-pyrrolidine]-5′-carboxamide] are 18.3 nM and 1.42 nM.
On the same counts, the results for `COc1cc(C(=O)NCCCC#Cc2cccc3c2CN([C@@H]2CCC(=O)NC2=O)C3=O)ccc1NC(=O)[C@@H]1N[C@@H](CC(C)(C)C)[C@@]2(CNc3cc(Cl)ccc32)[C@H]1c1cccc(Cl)c1F` [Example 17, (2′S,3S,4′S,5′R)-6-chloro-4′-(3-chloro-2-fluorophenyl)-N-(4-((5-(2-((R)-2,6-dioxopiperidin-3-yl)-1-oxoisoindolin-4-yl)pent-4-yn-1-yl)carbamoyl)-2-methoxyphenyl)-2′-neopentylspiro[indoline-3,3′-pyrrolidine]-5′-carboxamide] are 3.82 nM and 1.36 nM.
The matching figures for `COc1cc(C(=O)N2CCCC[C@@H]2CCC#Cc2cccc3c2CN([C@@H]2CCC(=O)NC2=O)C3=O)ccc1NC(=O)[C@@H]1N[C@@H](CC(C)(C)C)[C@@]2(CNc3cc(Cl)ccc32)[C@H]1c1cccc(Cl)c1F` [Example 36, (2′S,3S,4′S,5′R)-6-chloro-4′-(3-chloro-2-fluorophenyl)-2′-(2,2-dimethylpropyl)-N-{4-[(2R)-2-(4-{2-[(3R)-2,6-dioxopiperidin-3-yl]-1-oxo-3H-isoindol-4-yl}but-3-yn-1-yl)piperidine-1-carbonyl]-2-methoxyphenyl}-1,2-dihydrospiro[indole-3,3′-pyrrolidine]-5′-carboxamide]: 35.4 nM and 2.03 nM.
Consider `COc1cc(C(=O)N[C@@H]2CCC[C@H](C#Cc3cccc4c3CN(C3CCC(=O)NC3=O)C4=O)C2)ccc1NC(=O)[C@@H]1N[C@@H](CC(C)(C)C)[C@@]2(CNc3cc(Cl)ccc32)[C@H]1c1cccc(Cl)c1F` (stereo partly drawn) [Example 33, (2′S,3S,4′S,5′R)-6-chloro-4′-(3-chloro-2-fluorophenyl)-2′-(2,2-dimethylpropyl)-N-(4-{[(1R,3S)-3-{2-[2-(2,6-dioxopiperidin-3-yl)-1-oxo-3H-isoindol-4-yl]ethynyl}cyclohexyl]carbamoyl}-2-methoxyphenyl)-1,2-dihydrospiro[indole-3,3′-pyrrolidine]-5′-carboxamide], for which the results for the IC50 in assay [1] and in assay [2] were 104 nM and 2.29 nM, respectively.
